Reference: patent publication US8252308B2, “Feminine anti-itch gel” (C.B. Fleet Company Inc., priority 2005, dated 2012)
Counter-ions that a name gives are not always drawn.

Assay: pH and solubility behaviour of the anesthetic in water
Format: physicochemical
Excerpt: In a preferred aspect, the pH modifier and the quantity of the pH modifier are selected to provide a pH to the composition of from 4 to 7, from 4.5 to 6.5, or more preferably from 5 to 5.3 when pramoxine serves as an anesthetic. In one aspect, the preferred pH for the gel is a pH value where the anesthetic is substantially present in its neutral state. For example, the hydrochloride salt of pramoxine has an acidic pH in water of about 4. However, at about pH 5 the pramoxine salt deprotonates to a neutral form that may provide increased transfer of the anesthetic into the vulvar tissues. Thus, a sufficient quantity of a base may be added to the gel as a pH modifier to provide the anesthetic in a substantially neutral form. However, at an upper pH value, such as about 5.2 for pramoxine, the anesthetic may precipitate out of the water phase, thus reducing the clarity of the gel. Thus, in a more preferred aspect, the pH modifier is chosen to provide a pH to the gel at which the majority of the anesthetic is present in its neutral state while remaining substantially solubilized.

pH at which the salt deprotonates to a neutral form | upper pH value at which the anesthetic may precipitate out of the water phase | pH in water (hydrochloride salt in water) | water solubility | Structure (SMILES)
~5 | about 5.2 | about 4 | – | CCCCOc1ccc(OCCCN2CCOCC2)cc1 [hydrochloride salt of pramoxine, pramoxine hydrochloride]
– | – | – | water insoluble | CCOC(=O)c1ccc(N)cc1 [benzocaine]
